Source: patent US11135252B2, “Probiotic therapies for developmental disorders and other neurological disorders” (Baylor College of Medicine, priority 2016, dated 2021)
“Also recorded” adds a separate entry of the source.

Legend:
MHFD offspring = experiment: Three-chamber social test in MHFD offspring; format: in vivo, mice; settings: for preference for social novelty (time interacting with novel vs familiar mouse) / sociability (time interacting with mouse vs empty cage): in drinking water from weaning for 4 weeks, 1×10^8 organisms/mouse/day; for preference for social novelty / sociability: intranasal oxytocin approximately 200 μg/kg, 30 min prior
Description: Crawley's three-chamber test for sociability and preference for social novelty was performed as described (Silverman et al., 2010). In brief, the mouse first experienced a 10-minute period of habituation during which it was allowed to freely explore a 60×40×23 cm Plexiglass arena divided into three equally sized, interconnected chambers (Left, Center, Right). Sociability was measured during a second ten-minute period in which the subject could interact either with an empty wire cup (Empty) or a wire cup containing an age and sex-matched stranger conspecific (Mouse 1). Time spent interacting (sniffing, crawling upon) with either the empty cup or the stranger mouse contained in the other cup as well as time spent in each chamber was recorded using the AnyMaze software, by independent observers. Empty cup placement in the Left or Right chamber during the Sociability period was counterbalanced between trials. Finally, preference for social novelty was assayed by introducing a second stranger mouse (Mouse 2) into the previously the empty wire cup. Time spent in each chamber as well as time spent interacting with either Mouse 1 or Mouse 2 was recorded using the automated AnyMaze software by independent observers. Lactobacillus reuteri MM4-1A (ATCC-PTA-6475) and Lactobacillus johnsonii (ATCC 33200) were cultured anaerobically in MRS broth in a 90% N2, 5% CO2, 5% H2 environment. L. reuteri was heat-killed by keeping the bacteria at 80° C. for 20 minutes (Wang et al., 2010). Bacterial viability was assessed by plating and the efficacy of the heat-kill procedure was confirmed by the absence of colony growth following plating. Cultures were centrifuged, washed, and resuspended in anaerobic solution (PBS) and frozen at −80° C. until use. PBS, live or heat-killed L. reuteri were added to the drinking water, which was changed daily to minimize dosage variability. Whereas the experimental group received live bacteria, one control group received identically prepared cultures of heat-killed bacteria. A second group of control mice received water treated with PBS alone. Live and heat-killed L. reuteri were supplied at a dosage of 1×10^8 organisms/mouse/day continuously in drinking water. Mice consumed the treated water ad libitum over the treatment period. The treated drinking water for each group was replaced daily two hours prior to the onset of the dark cycle to minimize variation in microbial exposure. Behavioral assays were initiated after 4-weeks of L. reuteri or control treatment. The protocol of the L. johnsonii preparation and administration matched the L. reuteri protocol. Fecal samples for sequencing and tissue used in the immunofluorescence studies were collected at the end of the treatment. Oxytocin was obtained from Tocris Bioscience (product 1910) and solubilized in 10% dimethyl sulfoxide (DMSO) in PBS. 10% DMSO in PBS was used as the vehicle control. Mice received oxytocin intranasally (at approximately 200 μg/kg) thirty minutes prior to behavior. 1.25 μl of oxytocin or vehicle solution was injected into each nostril from P10 pipette. Oxytocin dose was selected according to dosages reported to rescue social behavior in genetic models phenotypically expressing ASD-like behaviors (Penagarikano et al., 2015).

VTA DA neurons = experiment: Social interaction-induced LTP (AMPAR/NMDAR ratio) in VTA DA neurons of MHFD offspring; format: in vivo, mice; settings: for stranger interaction-evoked LTP in the VTA (AMPAR/NMDAR ratio): bacteria in drinking water, 24 hours after 10 min reciprocal interaction
Source text: Brain regions responding to naturally rewarding stimuli, including the ventral tegmental area (VTA) and the nucleus accumbens (NAc), are crucially involved in social behaviors (Dolen et al., 2013; Gunaydin et al., 2014; Huang and Hessler, 2008). In addition, oxytocin-expressing neurons in the PVN project to the VTA (Melis et al., 2007). Oxytocin activates VTA neurons in both mice and humans, influencing the processing of socially relevant cues (Gregory et al., 2015; Groppe et al., 2013; Tang et al., 2014) and oxytocin receptor blockade in the VTA prevents social attachment in rodents (Pedersen et al., 1994). Given that social stimulation can be particularly rewarding and triggers synaptic potentiation in VTA DA neurons of birds (Huang and Hessler, 2008), it was considered whether direct social interaction evokes long-term potentiation (LTP) of synaptic inputs to VTA DA neurons (FIGS. 20A-20C). To this end, AMPAR/NMDAR ratios were recorded of glutamatergic excitatory postsynaptic currents (EPSCs) in MRD and MHFD offspring 24 hours following a 10 min reciprocal interaction with either a stranger or a familiar mouse (FIG. 5A). In control MRD mice, social interaction with a stranger, but not a familiar mouse, triggered LTP in VTA DA neurons, as determined by an increase in AMPAR/NMDAR ratios (FIGS. 5B and 5D).
Recordings were performed as previously described (Ungless et al., 2001; Zhu et al., 2011) and the investigators were kept blind to treatment conditions. Briefly, mice were anesthetized with a mixture of ketamine (100 mg/kg), xylazine (10 mg/kg) and acepromazine (3 mg/kg). Horizontal slices (225-300 μm thick) containing the VTA were cut from the brains of C57BL/6J mice. Mice were transcardially perfused with an ice-cold, oxygenated solution containing (in mM) NaCl, 87; NaHCO3, 25; KCl, 2.5; NaH2PO4, 1.25; MgCl2, 7; CaCl2, 0.5; dextrose, 25; sucrose, 75. […] Data were obtained with a MultiClamp 700B amplifier, digitized at 20 kHz with a Digidata 1440A, recorded by Clampex 10 and analyzed with Clampfit 10 software (Molecular Devices). […] After establishing a gigaohm seal (>2 GΩ) and recording stable spontaneous firing in cell-attached, voltage clamp mode (−70 mV holding potential), cell phenotype was determined by measuring the width of the action potential and the presence of an Ih current. AMPAR/NMDAR ratios were calculated as previously described (Ungless et al., 2001). […]

Row | Compound | preference for social novelty (time interacting with novel vs familiar mouse) (MHFD offspring) | sociability (time interacting with mouse vs empty cage) (MHFD offspring) | preference for social novelty (time interacting with novel vs familiar mouse) (MHFD offspring; listed as live L. reuteri) | sociability (time interacting with mouse vs empty cage) (MHFD offspring; listed as live L. reuteri) | preference for social novelty (chamber containing Mouse 2, FIG. 16B) (MHFD offspring; in drinking water, 4 weeks) | sociability (chamber containing a mouse, FIG. 16A) (MHFD offspring; in drinking water, 4 weeks) | stranger interaction-evoked LTP in the VTA (AMPAR/NMDAR ratio) (VTA DA neurons) | stranger interaction-evoked LTP in the VTA (AMPAR/NMDAR ratio) (VTA DA neurons; listed as live L. reuteri) | preference for social novelty (MHFD offspring) | sociability (MHFD offspring) | preference for social novelty (MHFD offspring; listed as Oxytocin) | sociability (MHFD offspring; listed as Oxytocin) | social interaction-induced LTP in the VTA (VTA DA neurons; intranasal oxytocin alone, without social interaction) | social interaction-induced LTP in the VTA (VTA DA neurons; intranasal oxytocin approximately 200 μg/kg combined with stranger social interaction)
1 | Lactobacillus reuteri MM4-1A (ATCC-PTA-6475) [L. reuteri] | significantly improved | significantly improved sociability | rescued | rescued sociability | improved | improved MHFD offspring sociability | rescued stranger interaction-induced LTP | restored stranger interaction-evoked LTP | – | – | – | – | – | –
2 | CC[C@H](C)[C@@H]1NC(=O)[C@H](Cc2ccc(O)cc2)NC(=O)[C@@H](N)CSSC[C@@H](C(=O)N2CCC[C@H]2C(=O)N[C@@H](CC(C)C)C(=O)NCC(N)=O)NC(=O)[C@H](CC(N)=O)NC(=O)[C@H](CCC(N)=O)NC1=O [oxytocin] | – | – | – | – | – | – | – | – | improved | improved sociability | restored | restored | failed to rescue | restored LTP; also recorded: rescued LTP
